Measured values reported in patent publication US20100184695A1, “VASCULAR ENDOTHELIAL CELL-BINDING PEPTIDE” (priority 2007, published 2010).
No end group written: not given here.

How the values were obtained:
HUVEC cells [1] = test: Uptake of fluorescently labeled peptide-multiarm PEG conjugate into endothelial cell (image analysis scoring); assay type: cell-based, human; design: key: Score 0: No fluorescent luminescent spot in a cell is recognized.; Score 1: Faint fluorescent luminescent spots are recognized in a cell.; Score 2: Fluorescent luminescent spots clearer than in score 1 are recognized in a cell.; Score 3: Many luminescent spots further brighter than in score 2 are seen in a cell; conditions: fluorescein-labeled multiarm PEG-peptide conjugate, peptide 16 μM, 8 hours
Description: (§1) PEG having four maleimide groups per molecule (Multiarm PEG, SUNBRIGHT PTE-200MA, manufactured by NOF Corporation) was dissolved in DMSO at the concentration of 2 mM, 20 μl of this solution, and an equivalent amount (20 μl) of a 10 mM fluorescein-labeled peptide solution in DMSO were mixed to react them at room temperature for 2 hours. After 60 μl of PBS was added to dilute the mixture to the total amount of 100 μl, desalting treatment was performed using a spin column (Bio-Rad, Micro Bio-Spin Column 30) equilibrated by washing with 500 μl of PBS three times in advance, and an unbound peptide was separated and removed to obtain a peptide-multiarm PEG conjugate.
A 96-well microplate (glass bottom plate, Nunc No. 164588) was treated with 100 μl of a 1% acidic collagen solution for 10 minutes in advance, and washed with 120 μl of PBS once, and 100 μl of 1×10^5/ml of HUVEC cells were seeded, and cultured under the condition of 37° C. and 5% CO2 for 2 days. Upon use, cells were washed with 150 μl of a medium (EBM-2 medium containing a 2% fetal bovine serum (Cambrex Bio Science, containing a growth factor)) once, and 50 μl of the same medium, and 50 μl of a solution obtained by diluting the multiarm PEG-peptide conjugate (a peptide of SEQ ID No. 12 and a partial peptide thereof (SEQ ID Nos. 17, 18, and 19), a peptide of SEQ ID No. 13 and a partial peptide thereof (SEQ ID Nos. 15, 20, and 21), and a random sequence peptide (SEQ ID No. 77)) prepared in Example 3 (1) with a medium to the peptide concentration of 32 μM were sequentially added, followed by culturing under the condition of 37° C. and 5% CO2 for 8 hours (the peptide concentration at reaction with cells was 16 μM). The cell after the reaction was observed using a confocal laser microscope (Olympus FV1000). The amount of fluorescent luminescent spots derived from the peptide recognized in a cell was scored as follows.
Score 0: No fluorescent luminescent spot in a cell is recognized. Score 1: Faint fluorescent luminescent spots are recognized in a cell. Score 2: Fluorescent luminescent spots clearer than in score 1 are recognized in a cell. Score 3: Many luminescent spots further brighter than in score 2 are seen in a cell.

HUVEC cells [2] = test: Uptake of fluorescently labeled peptide-BSA conjugate (image analysis); assay type: cell-based, human; conditions: peptide 10 μM, 8 hours
Description: (§2) In 1 ml of a 50 mM sodium bicarbonate solution was dissolved 20 mg of BSA, to prepare a 0.3 mM solution. To the total amount (1 ml) of this solution was added 20 μl of a 250 mM solution (final concentration: 5 mM) of NHS-PEO12-maleimide (catalog No. 22112, manufactured by Pierce) which is a divalent crosslinking reagent having a PEG chain spacer, followed by a reaction at room temperature for 1 hour. After the reaction, 100 μl of the solution was desalted using a spin column (Bio-Rad, Micro Bio-Spin Column 30) equilibrated by washing with 500 μl of a 0.1 M sodium phosphate buffer (pH 7.0) three times in advance. An unreacted crosslinking reagent was separated and removed. After desalting, 50 μl of the solution was mixed with an equivalent amount of a 0.1 M sodium phosphate buffer (pH 7.0) to dilute, and to 100 μl of the resulting solution was added 10 μl of a fluorescein-labeled peptide solution in DMSO, followed by a reaction at room temperature for 1 hour. The total amount of the solution after the reaction was desalted using a spin column (Bio-Rad, Micro Bio-Spin Column 30) equilibrated by washing with 500 μl of PBS three times in advance, thereby, an unbound peptide was separated and removed, to obtain a peptide-BSA conjugate solution.
A 96-well microplate (glass bottom plate, Nunc No. 164588) was treated with 100 μl of a 1% acidic collagen solution for 10 minutes in advance, and washed with 120 μl of PBS once, and 100 μl of 1×10^5/ml of HUVEC cells were seeded, and cultured under the condition of 37° C. and 5% CO2 for 2 days. Upon use, cells were washed with 150 μl of a medium (EBM-2 medium containing a 2% fetal bovine serum (Cambrex Bio Science, containing a growth factor)) once, and 50 μl of the same medium, and 50 μl of a solution obtained by diluting the peptide-BSA conjugate (SEQ ID Nos. 12, 13, 16, and 77) prepared in Example 3 (2) with a medium to the peptide concentration of 20 μM were sequentially added, followed by culturing under the condition of 37° C. and 5% CO2 for 8 hours (the peptide concentration at reaction with cells was 10 μM). Cells after the reaction were observed using a confocal laser microscope (Olympus FV1000).

HeLa = test: as above; assay type: cell-based; conditions: HeLa comparative cell; compared with uptake into a HUVEC
HUVEC cells [3] = test: Uptake of fluorescently labeled peptide-BSA conjugate into endothelial cell (quantitative analysis); assay type: cell-based, human; conditions: fluorescein-labeled peptide-BSA conjugate, peptide 10 μM, 8 hours, 37° C.; fluorescence recovered from cells
Description: as §2
On a 96-well microplate (Corning No. 3595) were seeded 100 μl of 1×10^5/ml HUVEC cells, and cells were cultured under the condition of 37° C. and 5% CO2 for 2 days. Upon use, cells were washed with 150 μl of a medium (EBM-2 medium containing a 2% fetal bovine serum (Cambrex Bio Science, containing a growth factor)) once, and 50 μl of the same medium, and 50 μl of a solution obtained by diluting the peptide-BSA conjugate (SEQ ID Nos. 12, 13, 16, and 77) prepared in Example 3 (2) with a medium to the peptide concentration of 20 μM were sequentially added, followed by culturing under the condition of 37° C. and 5% CO2 for 8 hours (the peptide concentration at reaction with cells was 10 μM). Recovery of the peptide-BSA conjugate bound to, or taken into cells after the reaction, and fluorescence quantitation were performed in the same method as in Example 3.

HUVEC cells [4] = test: Uptake of fluorescently labeled peptide-PEG conjugate into endothelial cell (quantitative analysis); assay type: cell-based, human; conditions: fluorescein-labeled peptide-multiarm PEG conjugate, peptide 10 μM, 8 hours, 37° C.; fluorescence recovered from cells, added conjugate = 100%
Description: as §1
A 96-well microplate (glass bottom plate, Nunc No. 164588) was treated with 100 μl of a 1% acidic collagen solution for 10 minutes in advance, and washed with 120 μl of PBS once, and 1×10^5/ml of 100 μl of HUVEC cells were seeded, and cultured under the condition of 37° C. and 5% CO2 for 2 days. Upon use, cells were washed with 150 μl of a medium (EBM-2 medium containing a 2% fetal bovine serum (Cambrex Bio Science, containing a growth factor)) once, and 50 μl of the same medium, and 50 μl of a solution obtained by diluting a peptide-multiarm PEG conjugate (SEQ ID Nos. 12, 13, 16 (partial sequence of SEQ ID No. 14), and 77) prepared in Example 3 (1) with a medium to the peptide concentration of 20 μM were sequentially added, followed by culturing under the condition of 37° C. and 5% CO2 for 8 hours (the peptide concentration at reaction with cells was 10 μM). Cells after culturing were washed with 150 μl of a HBSS(+) buffer three times to remove an unbound peptide-multiarm PEG conjugate, and 100 μl of HBSS(+) containing 1% SDS to extract a peptide bound to, or taken into cells. The extract was transferred to another 96-well microplate (black plate), and fluorescence at an excitation wavelength of 490 nm and a detection wavelength of 530 nm was measured using a fluorophotometer. Letting the fluorescent intensity of each of the added peptide-multiarm PEG conjugate to be 100%, the amount (%) of uptake of the peptide into cells was calculated from the fluorescent amount recovered from cells.

[5] = system: normal human umbilical vein endothelial cell; test: Uptake of peptide-modified liposome encapsulating doxorubicin into HUVEC (quantification analysis); assay type: cell-based; conditions: doxorubicin-encapsulated peptide-modified liposome, 6 hours
Description: Hydrogenated soybean phosphatidyl choline (10 mg), cholesterol (3.4 mg),
distearoylphosphatidylethanolamine-polyethylene glycol 5000 (3.5 mg), and distearoylphosphatidylethanolamine-polyethylene glycol 5000-maleimide (3.1 mg) were dissolved in chloroform, and a solvent in a flask was removed using an evaporator to form a thin film. To this was added 1.7 mL of a 250 mM aqueous ammonium sulfate solution, followed by heating at 65° C. The resulting vesicle was adjusted in a particle size with an extruder using, subsequently, porous membranes of the pore sizes of 1.0 μm, 0.4 μm, and 0.2 μm. Into the prepared liposome having the particle diameter of about 200 nm was encapsulated doxorubicin by a remote loading method. After unencapsulated doxorubicin was removed with a column, peptides (SEQ ID Nos. 12, 13, 76 (partial sequence of SEQ ID No. 7), and 78) were added, respectively, at the ⅕ amount based on maleimide, and a liposome into which various peptides are introduced was prepared. Unreacted maleimide was inactivated by adding the 3-fold amount of 2-mercaptoethanol.
Regarding a 50 to 60% confluent normal human umbilical vein endothelial cell cultured in a 24-well plate, a medium was exchanged, and a doxorubicin-encapsulated peptide-modified liposome solution was added in the half amount of a medium. After 6 hours, cells were washed with a phosphate buffer, treated with trypsin, and cells were collected by a centrifugation procedure. To a cell pellet was added 50 μL of 10% Triton X-100 to dissolve cells and the doxorubicin-encapsulated peptide-modified liposome, 350 μL of isopropanol with 10% 0.75 M HCl added thereto was added, and this was allowed to stand overnight at −20° C. After a centrifugation procedure, the supernatant was analyzed with an ODS column, and doxorubicin taken in the cell was quantitated.

| Substance | Intracellular Fluorescence (Score) (HUVEC cells [1]) | Uptake of peptide-BSA conjugate into cell (confocal laser microscopic image) (HUVEC cells [2]) | Recovery of Peptide-BSA conjugate (%) (HUVEC cells [3]) | Recovery of Peptide-PEG conjugate (%) (HUVEC cells [4]) | further results |
| --- | --- | --- | --- | --- | --- |
| TLPSPLAL [Sequence-17] | 1 |  |  |  |  |
| PFLPLYVP [Sequence-15] | 2 |  |  |  |  |
| GTQLFLIH [Sequence-16] |  | many bright luminescent spots were observed in a cell | 0.227% | 0.047% | Uptake of peptide-BSA conjugate into cell (confocal laser microscopic image) (HeLa): an extremely small amount of peptides were observed in a cell |
| SEQ ID No. 76: partial sequence of SEQ ID No. 7; sequence not printed in the text (VIPILSIYTA; Designed peptide acting as a vascular endothelial cell binding peptide) |  |  |  |  | Amount of uptake of doxorubicin compared with random sequence (SEQ ID No. 78) liposome and liposome with no peptide [5]: remarkably increased |
| PLALLTVH [Sequence-19] | 1 |  |  |  |  |
| TVPFLPLY [Sequence-21] | 1 |  |  |  |  |
| PSPLALLT [Sequence-18] | 1 |  |  |  |  |
| SLTVPFLPLYVP [Sequence-13, peptide presented by phage PhD clone3-30] | 2 | many bright luminescent spots were observed in a cell | 0.116% | 0.122% | Uptake of peptide-BSA conjugate into cell (confocal laser microscopic image) (HeLa): an extremely small amount of peptides were observed in a cell; Amount of uptake of doxorubicin compared with introduction of SEQ ID Nos. 12 and 76 [5]: higher; Amount of uptake of doxorubicin compared with random sequence (SEQ ID No. 78) liposome and liposome with no peptide [5]: remarkably increased; Amount of uptake of doxorubicin relative to no peptide introduction [5]: about 3 fold |
| TLPSPLALLTVH [Sequence-12, peptide presented by phage PhD clone1-14] | 3 | many bright luminescent spots were observed in a cell | 0.127% | 0.211% | Uptake of peptide-BSA conjugate into cell (confocal laser microscopic image) (HeLa): an extremely small amount of peptides were observed in a cell; Amount of uptake of doxorubicin compared with random sequence (SEQ ID No. 78) liposome and liposome with no peptide [5]: remarkably increased |
| EYDLSTAGGAAA [Sequence-77, reference compound] | 0 | no peptide in, a cell was observed | 0.029% | 0.020% |  |
| SLTVPFLP [Sequence-20] | 1 |  |  |  |  |
